# Experiments:
# Type in all cases: physicochemical
# [1] = Dissolution of AZT and ddC SAIB formulations in soft gelatin capsules (USP XXIII Apparatus 2, Method B)
# Protocol: Zidovudine (AZT) and dideoxycytodine (ddC) suspensions were prepared by mixing drug with SAIB/solvent solutions with and without a cellulosic coexcipient. Approximately 1 g of each formulation was filled into soft gelatin capsules, which were heat sealed. Dissolution profiles were determined using Apparatus 2, Method B (USP XXIII) at a paddle speed of 50 rpm. Individual gelcaps were placed in separate dissolution vessels, and samples of the buffer in each vessel were obtained at 0.25, 0.5, 1, 2, 3, 6, and 24 hours. The samples were analyzed at 266 and 272 nm on a Perkin Elmer Lambda 20 UV-vis spectrophotometer for AZT and ddC drug content, respectively.
# [2] = In vitro release of paclitaxel and 5-FU from SAIB formulations into buffer (UV-vis); conditions: for cumulative release: after 7 days, 37° C.
# Protocol: Solutions of SAIB in the appropriate solvent were prepared with and without the incorporation of an additive. The active was weighed into a test tube and the SAIB/mixture was added and mixed thoroughly to yield a solution or suspension at the desired drug loading. Single drops of the mixture were precipitated into buffer by injection with standard syringes and needles. Samples were maintained at 37° C. in a shaker, sampled periodically, and analyzed by UV-vis spectrophotometry for active release. Paclitaxel and 5-FU samples were analyzed at 232 nm and 266 nm, respectively.
# [3] = Aerosol formulation with propellant R-134a: solution formation and sprayability
# Protocol: 5.33 g of a 10 wt % solution of bupivacaine in a composition containing 70:30 SAIB/NMP, prepared as described in U.S. Pat. No. 5,747,058, was added to an aerosol container. 14.32 g of propellant R-134a (1,1,1,2-tetrafluoroethane) was added.
# 5.44 g of a 10 wt % solution of bupivacaine in a composition containing 70:30 SAIB/NMP, prepared as described in U.S. Pat. No. 5,747,058, was added to an aerosol container. 16.55 g. of propellant R-134a (1,1,1,2-tetrafluoroethane) was added.
# 0.87 g of bupivacaine base was added to an aerosol container. 8.47 g of an SAIB/propylene carbonate solution (70:30) containing 2.5 wt % of a biodegradable polymer (65:35 DLPLG) was added to the container. 0.98 g of ethanol was added to help the drug dissolve. Once dissolved, approximately 16 g of propellant R-134a (1,1,1,2-tetrafluoroethane) was added.
# [4] = In vitro release of bupivacaine from precipitated drops into buffer (UV-vis 265 nm)
# Protocol: CAPROL 10G4O (decaglycerol tetraoleate) was dissolved in benzyl benzoate at a weight ratio of 50:50. Bupivacaine was dissolved in this mixture at a concentration of 8.75 wt %. Drops weighing approximately 100 mg were precipitated into a test tube containing 40 mL of buffer. Samples of the buffer were removed at specified time points and replaced with fresh buffer. The samples were analyzed by UV-vis spectrophotometry at 265 nm to determine the concentration of bupivacaine in each buffer sample. At 4 hours, less than 7.5 wt % of the bupivacaine in the drop had been released to the buffer. At 48 hours, around 24.0 wt % of the bupivacaine had been released.
# The 1,6-hexanediol lactate ε-hydroxycaproic acid produced in Example 1 was dissolved in N-methylpyrrolidone at a weight ratio of 70:30. 10 wt % bupivacaine base was then added to this mixture and dissolved. Drops weighing approximately 100 mg were precipitated into 40 mL buffer. Samples of buffer were removed at specified times and replaced with fresh buffer. Buffer samples were analyzed by UV-vis spectrophotometry at 265 nm to determine the concentration of bupivacaine in each buffer sample. At 4 hours, around 4.1 wt % of the bupivacaine contained in the precipitated drop had been released. At 24 hours, around 8.6 wt % of the bupivacaine had been released.
# [5] = Dissolution of SAIB in propellants; conditions: propellants 134a and 227, levels of 5 and 10 wt %
# Protocol: SAIB was dissolved in propellants 134a (1,1,1,2-tetrafluoroethane) and 227 (1,1,1,2,3,3,3-heptafluoropropane) at levels of 5 and 10 wt %.
molecule,measurement,setting,value
"Cc1cn([C@H]2C[C@H](N=[N+]=[N-])[C@@H](CO)O2)c(=O)[nH]c1=O [AZT, Zidovudine]",cumulative percent released,"[1]; 11.1 wt % AZT in 70:30 SAIB/Migylol 810, 2 hours",104.1%
same,amount released,"[1]; 11.1 wt % AZT in 85:15 SAIB/EtOH + 0.02 wt % CAB, 2 hours",25.6%
same,amount released,"[1]; 11.1 wt % AZT in 85:15 SAIB/EtOH + 0.2 wt % CAB, 2 hours",7.6%
same,cumulative percent released,"[1]; 11.1 wt % AZT in 85:15 SAIB/EtOH, 2 hours",71.2%
same,cumulative percent released,[1]; active loading doubled to 22.2 wt % in 85:15 SAIB/EtOH,93.8%
"O=c1[nH]cc(F)c(=O)[nH]1 [Example 5-FU, 5-fluorouracil]",percent released,"[2]; 10 mg/mL 5-FU in 85:15 SAIB/EtOH + 5 wt % Cremophor EL, after two days",106.0%
same,amount released,"[2]; 10 mg/mL 5-FU in 85:15 SAIB/EtOH + Pluronic L-101, after two days",102.0%
same,percent released,"[2]; 10 mg/mL 5-FU in 85:15 SAIB/EtOH, no surfactant, after two days",80.6%
CCCCN1CCCCC1C(=O)Nc1c(C)cccc1C (stereo not shown) [bupivacaine],sprayability of aerosol mixture,"[3]; 0.87 g bupivacaine base, 8.47 g SAIB/propylene carbonate (70:30) with 2.5 wt % 65:35 DLPLG, 0.98 g ethanol, approx. 16 g R-134a",easily sprayed with no bubbling or foaming
same,sprayability of aerosol mixture,[3]; 5.33 g of 10 wt % bupivacaine in 70:30 SAIB/NMP + 14.32 g propellant R-134a,easily sprayed with no bubbling or foaming
same,sprayability of aerosol mixture,[3]; 5.44 g of 10 wt % bupivacaine in 70:30 SAIB/NMP + 16.55 g propellant R-134a,easily sprayed with no bubbling or foaming
same,bupivacaine contained in the precipitated drop released,"[4]; 1,6-hexanediol lactate ε-hydroxycaproic acid (Example 1)/N-methylpyrrolidone 70:30, 10 wt % bupivacaine base, 4 hours",around 4.1 wt %
same,bupivacaine released,"[4]; 1,6-hexanediol lactate ε-hydroxycaproic acid (Example 1)/N-methylpyrrolidone 70:30, 10 wt % bupivacaine base, 24 hours",around 8.6 wt %
same,bupivacaine in the drop released to the buffer,"[4]; CAPROL 10G4O (decaglycerol tetraoleate)/benzyl benzoate 50:50, 8.75 wt % bupivacaine, 4 hours",less than 7.5 wt %
same,bupivacaine released,"[4]; CAPROL 10G4O (decaglycerol tetraoleate)/benzyl benzoate 50:50, 8.75 wt % bupivacaine, 48 hours",around 24.0 wt %
"Nc1ccn([C@H]2CC[C@@H](CO)O2)c(=O)n1 [ddC, dideoxycytodine]",cumulative percent released,"[1]; 0.225 wt % ddC in 70:30 SAIB/Migylol 810, 2 hours",74.2%
same,amount released,"[1]; 0.225 wt % ddC in 85:15 SAIB/EtOH + 0.5 wt % CAB, 2 hours",39.4%
same,amount released,"[1]; 0.225 wt % ddC in 85:15 SAIB/EtOH + 1.0 wt % CAB, 2 hours",13.5%
same,cumulative percent released,"[1]; 0.225 wt % ddC in 85:15 SAIB/EtOH, 2 hours",59.5%
CC(=O)O[C@H]1C(=O)[C@@]2(C)[C@H]([C@H](OC(=O)c3ccccc3)[C@]3(O)C[C@H](OC(=O)[C@H](O)[C@@H](NC(=O)c4ccccc4)c4ccccc4)C(C)=C1C3(C)C)[C@]1(OC(C)=O)CO[C@@H]1C[C@@H]2O [paclitaxel],percent released,"[2]; 25 mg/mL paclitaxel in 85:15 SAIB/EtOH + 5 wt % Cremophor EL, after two days in vitro",77.0%
same,percent released,"[2]; 25 mg/mL paclitaxel in 85:15 SAIB/EtOH, no surfactant, after two days in vitro",56.0%
same,cumulative release,[2]; drug loading 5 mg/mL,106.4%
same,cumulative release,[2]; drug loading 25 mg/mL,85.9%
same,cumulative release,[2]; drug loading 50 mg/mL,33.8%
sucrose acetate isobutyrate [SAIB],appearance on dissolution in propellants,[5],Clear solutions were formed

# — patent publication US7833543B2, “High viscosity liquid controlled delivery system and medical or surgical device” (Durect Corporation, priority 1995, dated 2010)
